In ChEMBL document CHEMBL5257092, “Synthesis and biological evaluation of biaryl alkyl ethers as inhibitors of IDO1” (Bioorg Med Chem Lett, 2023):

Legend:
[1] = target: Indoleamine 2,3-dioxygenase 1 (Homo sapiens, UniProt P14902); assay: Inhibition of IDO1 (unknown origin) expressed in human HeLa cells; assay type: cell-based
[2] = target: Tryptophan 2,3-dioxygenase (Homo sapiens, UniProt P48775); assay: Inhibition of TDO (unknown origin) expressed in HEK cells; assay type: cell-based
[3] = Metabolic stability in human liver microsomes assessed as compound remaining at 0.5 uM incubated for 10 mins relative to control; assay type: ADME, Microsome; conditions: liver microsomes, read-out: Stability
[4] = Metabolic stability in rat liver microsomes assessed as compound remaining at 0.5 uM incubated for 10 mins relative to control; assay type: ADME, Microsome; conditions: liver microsomes, read-out: Stability
[5] = Metabolic stability in mouse liver microsomes assessed as compound remaining at 0.5 uM incubated for 10 mins relative to control; assay type: ADME, Microsome; conditions: liver microsomes, read-out: Stability
[6] = target: T1, Cytochrome P450 2C9 (Homo sapiens, UniProt P11712); assay: Inhibition of CYP2C9 (unknown origin); assay type: ADME
[7] = target: T2, Cytochrome P450 1A2 (Homo sapiens, UniProt P05177); assay: Inhibition of human CYP1A2; assay type: ADME
T2 sequence (P05177 whole entry): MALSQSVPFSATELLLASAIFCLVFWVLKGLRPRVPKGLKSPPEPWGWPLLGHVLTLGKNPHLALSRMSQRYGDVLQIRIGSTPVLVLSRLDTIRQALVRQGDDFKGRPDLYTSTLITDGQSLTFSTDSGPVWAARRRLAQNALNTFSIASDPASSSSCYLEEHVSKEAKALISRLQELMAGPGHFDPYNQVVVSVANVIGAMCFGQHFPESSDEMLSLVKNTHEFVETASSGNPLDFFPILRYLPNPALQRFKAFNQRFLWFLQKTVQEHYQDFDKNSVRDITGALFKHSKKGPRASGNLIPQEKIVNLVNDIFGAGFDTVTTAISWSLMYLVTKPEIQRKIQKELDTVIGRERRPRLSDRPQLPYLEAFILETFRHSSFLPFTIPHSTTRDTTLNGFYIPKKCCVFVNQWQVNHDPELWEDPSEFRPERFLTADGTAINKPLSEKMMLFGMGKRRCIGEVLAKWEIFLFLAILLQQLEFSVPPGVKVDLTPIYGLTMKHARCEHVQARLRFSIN

[8] = target: Cytochrome P450 2C19 (Homo sapiens, UniProt P33261); assay: Inhibition of human CYP2C19; assay type: ADME
[9] = target: T1, Cytochrome P450 2C9; assay: Inhibition of human CYP2C9; assay type: ADME
[10] = target: Cytochrome P450 2D6 (Homo sapiens, UniProt P10635); assay: Inhibition of human CYP2D6; assay type: ADME
[11] = target: Cytochrome P450 3A4 (Homo sapiens, UniProt P08684); assay: Inhibition of human CYP3A4; assay type: ADME
[12] = target: T3, Cytochrome P450 2C8 (Homo sapiens, UniProt P10632); assay: Inhibition of human CYP2C8; assay type: ADME
T3 sequence (P10632 whole entry): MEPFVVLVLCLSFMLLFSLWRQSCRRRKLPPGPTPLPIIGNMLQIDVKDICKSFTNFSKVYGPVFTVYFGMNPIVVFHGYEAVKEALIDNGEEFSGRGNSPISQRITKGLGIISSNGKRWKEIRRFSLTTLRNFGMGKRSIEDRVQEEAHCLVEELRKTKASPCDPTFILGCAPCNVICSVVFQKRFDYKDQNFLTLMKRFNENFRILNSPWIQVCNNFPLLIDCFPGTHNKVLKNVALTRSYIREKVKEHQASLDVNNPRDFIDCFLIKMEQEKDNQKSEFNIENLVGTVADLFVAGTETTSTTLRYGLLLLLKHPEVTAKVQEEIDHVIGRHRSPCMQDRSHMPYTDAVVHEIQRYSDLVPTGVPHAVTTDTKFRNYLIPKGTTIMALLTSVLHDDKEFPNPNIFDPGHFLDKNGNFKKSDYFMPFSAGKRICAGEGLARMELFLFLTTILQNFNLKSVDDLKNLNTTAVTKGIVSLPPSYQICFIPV

[13] = target: T4, Cytochrome P450 2B6 (Homo sapiens, UniProt P20813); assay: Inhibition of human CYP2B6; assay type: ADME
T4 sequence (P20813 whole entry): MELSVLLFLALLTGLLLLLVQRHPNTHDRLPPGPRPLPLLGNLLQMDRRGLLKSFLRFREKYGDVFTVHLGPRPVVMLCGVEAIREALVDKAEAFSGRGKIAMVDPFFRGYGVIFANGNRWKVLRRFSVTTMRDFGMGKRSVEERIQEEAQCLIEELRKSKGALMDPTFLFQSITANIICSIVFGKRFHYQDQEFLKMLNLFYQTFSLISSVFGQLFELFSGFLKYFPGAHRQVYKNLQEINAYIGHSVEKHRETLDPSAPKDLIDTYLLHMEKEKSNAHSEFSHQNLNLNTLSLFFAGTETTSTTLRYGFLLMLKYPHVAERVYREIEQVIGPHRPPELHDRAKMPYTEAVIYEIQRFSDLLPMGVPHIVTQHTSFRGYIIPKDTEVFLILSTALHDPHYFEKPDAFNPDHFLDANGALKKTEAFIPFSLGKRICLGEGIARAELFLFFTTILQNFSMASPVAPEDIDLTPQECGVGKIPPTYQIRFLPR

[14] = Stability in human liver microsomes assessed as half life; assay type: ADME, Microsome
[15] = Stability in rat liver microsomes assessed as half life; assay type: ADME, Microsome
[16] = Stability in mouse liver microsomes assessed as half life; assay type: ADME, Microsome
[17] = Stability in monkey liver microsomes assessed as half life; assay type: ADME, Macaca mulatta, Microsome; conditions: rhesus monkey
[18] = Stability in dog liver microsomes assessed as half life; assay type: ADME, Canis lupus familiaris, Microsome
[19] = target: Voltage-gated inwardly rectifying potassium channel KCNH2 (Homo sapiens, UniProt Q12809); assay: Inhibition of hERG; assay type: toxicity
[20] = target: T5, Nuclear receptor subfamily 1 group I member 2 (Homo sapiens, UniProt O75469); assay: Transactivation of PXR (unknown origin); assay type: toxicity
T5 sequence (O75469 whole entry): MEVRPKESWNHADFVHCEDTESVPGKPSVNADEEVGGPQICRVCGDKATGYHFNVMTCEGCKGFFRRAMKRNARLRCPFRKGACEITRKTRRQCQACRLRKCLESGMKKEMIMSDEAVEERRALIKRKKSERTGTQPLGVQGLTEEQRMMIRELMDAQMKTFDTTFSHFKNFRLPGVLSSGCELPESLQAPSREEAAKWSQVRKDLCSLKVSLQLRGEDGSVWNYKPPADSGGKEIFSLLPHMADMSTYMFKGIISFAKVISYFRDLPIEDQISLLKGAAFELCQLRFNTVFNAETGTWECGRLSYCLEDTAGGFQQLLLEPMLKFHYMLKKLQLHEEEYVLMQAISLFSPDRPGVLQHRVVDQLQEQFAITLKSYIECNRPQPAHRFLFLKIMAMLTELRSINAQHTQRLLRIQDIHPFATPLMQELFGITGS

[21] = target: T3, Cytochrome P450 2C8; assay: Inhibition of CYP2C8 (unknown origin); assay type: ADME

Voltage-gated inwardly rectifying potassium channel KCNH2, sequence (Q12809 whole entry): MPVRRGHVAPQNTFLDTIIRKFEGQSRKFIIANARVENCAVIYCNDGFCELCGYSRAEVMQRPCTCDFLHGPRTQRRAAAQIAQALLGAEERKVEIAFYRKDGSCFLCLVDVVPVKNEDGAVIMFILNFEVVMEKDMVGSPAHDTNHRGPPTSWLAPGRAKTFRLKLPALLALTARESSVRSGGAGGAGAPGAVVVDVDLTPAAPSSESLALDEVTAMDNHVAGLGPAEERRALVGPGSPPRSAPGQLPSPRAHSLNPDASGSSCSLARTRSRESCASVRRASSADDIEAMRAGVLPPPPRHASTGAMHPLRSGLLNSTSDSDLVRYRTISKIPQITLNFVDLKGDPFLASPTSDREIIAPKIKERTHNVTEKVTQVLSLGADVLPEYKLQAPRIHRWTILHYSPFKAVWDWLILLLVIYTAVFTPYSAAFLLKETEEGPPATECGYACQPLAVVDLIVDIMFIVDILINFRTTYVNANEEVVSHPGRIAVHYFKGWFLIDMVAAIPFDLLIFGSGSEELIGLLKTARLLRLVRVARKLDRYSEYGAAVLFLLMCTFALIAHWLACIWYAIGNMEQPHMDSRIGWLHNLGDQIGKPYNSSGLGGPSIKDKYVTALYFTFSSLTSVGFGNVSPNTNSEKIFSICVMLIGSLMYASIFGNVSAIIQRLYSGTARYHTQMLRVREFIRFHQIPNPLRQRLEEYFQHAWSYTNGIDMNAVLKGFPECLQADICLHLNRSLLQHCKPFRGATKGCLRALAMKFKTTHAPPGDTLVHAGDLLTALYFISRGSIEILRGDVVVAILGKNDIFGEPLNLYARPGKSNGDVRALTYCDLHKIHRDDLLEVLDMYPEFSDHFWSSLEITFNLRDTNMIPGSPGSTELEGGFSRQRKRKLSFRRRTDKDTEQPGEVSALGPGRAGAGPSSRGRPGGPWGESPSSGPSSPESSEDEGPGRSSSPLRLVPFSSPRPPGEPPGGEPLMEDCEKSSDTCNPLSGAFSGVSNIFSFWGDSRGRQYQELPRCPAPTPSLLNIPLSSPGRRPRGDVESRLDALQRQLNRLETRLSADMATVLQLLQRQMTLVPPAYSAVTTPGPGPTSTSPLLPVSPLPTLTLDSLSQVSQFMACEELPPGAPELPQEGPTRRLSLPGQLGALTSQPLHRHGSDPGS
Indoleamine 2,3-dioxygenase 1, sequence (P14902 whole entry): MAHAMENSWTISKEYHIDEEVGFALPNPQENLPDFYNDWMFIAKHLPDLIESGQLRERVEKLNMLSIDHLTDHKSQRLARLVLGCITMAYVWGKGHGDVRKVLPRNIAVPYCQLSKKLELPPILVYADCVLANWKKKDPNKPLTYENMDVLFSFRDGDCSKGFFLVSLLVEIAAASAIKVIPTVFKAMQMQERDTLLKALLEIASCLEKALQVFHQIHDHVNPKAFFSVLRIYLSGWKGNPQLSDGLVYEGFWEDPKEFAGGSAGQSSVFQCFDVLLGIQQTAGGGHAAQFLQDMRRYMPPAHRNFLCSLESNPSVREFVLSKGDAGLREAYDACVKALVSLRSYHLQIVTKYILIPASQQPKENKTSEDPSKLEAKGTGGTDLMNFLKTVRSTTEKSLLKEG
Tryptophan 2,3-dioxygenase, sequence (P48775 whole entry): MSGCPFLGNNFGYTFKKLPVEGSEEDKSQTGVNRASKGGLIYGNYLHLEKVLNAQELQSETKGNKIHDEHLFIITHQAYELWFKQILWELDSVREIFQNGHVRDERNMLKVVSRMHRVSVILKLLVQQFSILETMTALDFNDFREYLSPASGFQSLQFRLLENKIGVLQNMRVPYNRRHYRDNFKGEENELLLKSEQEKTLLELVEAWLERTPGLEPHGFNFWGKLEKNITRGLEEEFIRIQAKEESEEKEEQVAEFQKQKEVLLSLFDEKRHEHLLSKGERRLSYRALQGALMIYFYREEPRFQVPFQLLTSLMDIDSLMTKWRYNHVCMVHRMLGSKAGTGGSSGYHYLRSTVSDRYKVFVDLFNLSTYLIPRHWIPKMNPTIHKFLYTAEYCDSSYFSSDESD
T1 sequence (P11712 whole entry): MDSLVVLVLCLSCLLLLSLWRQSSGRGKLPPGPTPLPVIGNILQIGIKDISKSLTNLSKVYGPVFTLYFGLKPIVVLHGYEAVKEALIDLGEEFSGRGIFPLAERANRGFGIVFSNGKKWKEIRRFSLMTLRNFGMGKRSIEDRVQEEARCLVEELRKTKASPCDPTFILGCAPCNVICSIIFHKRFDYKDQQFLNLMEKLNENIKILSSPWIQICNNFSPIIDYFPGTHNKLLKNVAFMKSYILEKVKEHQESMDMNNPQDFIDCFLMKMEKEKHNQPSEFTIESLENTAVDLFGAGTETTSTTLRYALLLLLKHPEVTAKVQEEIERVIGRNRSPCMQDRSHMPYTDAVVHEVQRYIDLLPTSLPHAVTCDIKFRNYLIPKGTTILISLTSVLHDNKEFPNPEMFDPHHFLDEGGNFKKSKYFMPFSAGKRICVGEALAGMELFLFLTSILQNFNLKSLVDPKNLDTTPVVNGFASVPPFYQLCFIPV
Cytochrome P450 2C19, sequence (P33261 whole entry): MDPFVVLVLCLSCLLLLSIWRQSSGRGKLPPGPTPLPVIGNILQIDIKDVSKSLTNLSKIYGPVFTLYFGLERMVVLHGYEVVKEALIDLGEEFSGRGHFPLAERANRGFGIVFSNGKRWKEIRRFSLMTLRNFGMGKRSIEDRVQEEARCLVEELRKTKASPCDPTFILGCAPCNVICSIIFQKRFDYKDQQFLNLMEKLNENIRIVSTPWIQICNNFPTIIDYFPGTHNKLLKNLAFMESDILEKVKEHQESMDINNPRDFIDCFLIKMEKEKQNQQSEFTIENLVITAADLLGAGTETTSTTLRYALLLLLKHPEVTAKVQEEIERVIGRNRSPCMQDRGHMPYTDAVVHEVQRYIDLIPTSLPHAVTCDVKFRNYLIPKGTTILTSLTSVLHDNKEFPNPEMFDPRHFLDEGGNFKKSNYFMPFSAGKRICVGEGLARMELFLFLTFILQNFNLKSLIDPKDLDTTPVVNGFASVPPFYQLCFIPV
Cytochrome P450 3A4, sequence (P08684 whole entry): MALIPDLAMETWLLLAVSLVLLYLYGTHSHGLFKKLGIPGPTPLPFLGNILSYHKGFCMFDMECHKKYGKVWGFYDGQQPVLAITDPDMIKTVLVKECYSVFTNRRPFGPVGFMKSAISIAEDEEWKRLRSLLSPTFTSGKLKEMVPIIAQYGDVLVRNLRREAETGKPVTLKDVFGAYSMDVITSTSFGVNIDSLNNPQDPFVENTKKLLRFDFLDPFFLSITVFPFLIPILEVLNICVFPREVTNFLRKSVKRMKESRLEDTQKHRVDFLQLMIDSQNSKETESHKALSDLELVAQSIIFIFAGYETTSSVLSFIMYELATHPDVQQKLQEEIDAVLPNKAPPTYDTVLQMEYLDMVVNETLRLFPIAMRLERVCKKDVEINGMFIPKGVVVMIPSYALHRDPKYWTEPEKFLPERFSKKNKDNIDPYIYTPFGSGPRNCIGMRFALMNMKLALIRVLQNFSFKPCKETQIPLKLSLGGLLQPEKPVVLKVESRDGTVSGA
Cytochrome P450 2D6, sequence (P10635 whole entry): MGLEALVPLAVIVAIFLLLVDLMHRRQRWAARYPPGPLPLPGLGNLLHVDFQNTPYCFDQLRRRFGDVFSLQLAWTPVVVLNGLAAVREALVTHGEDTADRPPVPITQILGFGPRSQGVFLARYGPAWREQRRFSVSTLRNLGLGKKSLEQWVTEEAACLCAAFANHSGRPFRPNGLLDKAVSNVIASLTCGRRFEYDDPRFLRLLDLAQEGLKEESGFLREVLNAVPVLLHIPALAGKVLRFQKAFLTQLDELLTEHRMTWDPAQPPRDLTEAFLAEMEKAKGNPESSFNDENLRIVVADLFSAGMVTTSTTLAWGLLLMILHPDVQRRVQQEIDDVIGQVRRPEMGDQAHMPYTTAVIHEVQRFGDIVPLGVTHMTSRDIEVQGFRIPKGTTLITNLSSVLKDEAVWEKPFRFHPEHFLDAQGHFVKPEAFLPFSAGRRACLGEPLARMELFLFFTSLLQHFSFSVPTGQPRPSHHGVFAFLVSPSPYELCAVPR

| Compound | IC50 [1] [µM] | IC50 [2] [µM] | remaining at 10 min, 0.5 µM [3] [%] | remaining at 10 min, 0.5 µM [4] [%] | remaining at 10 min, 0.5 µM [5] [%] | IC50 [6] [µM] | IC50 [21] [µM] | IC50 [19] [µM] | further results |
| --- | --- | --- | --- | --- | --- | --- | --- | --- | --- |
| COc1ccc(-c2ccc(OC(C(C)C)C(C)C)c(NC(=O)Nc3ccc(C)cc3)c2)cc1C(=O)O | 1.6 | – | – | – | – | – | – | – | – |
| CCCOc1c(CCC)cc(-c2ccccc2-c2nn[nH]n2)cc1NC(=O)Nc1ccc(C)cc1 | 0.031 | – | 82 | 86 | 68 | 6.2 | – | 40 | EC50 [20]: > 9 µM |
| COc1ccc(-c2ccc(Oc3ccccc3C(C)(C)C)c(NC(=O)Nc3ccccc3F)c2)cc1C(=O)O | – | > 7.5 | 100 | 100 | 61 | – | 5.1 | – | – |
| Cc1ccc(NC(=O)Nc2cc(-c3ccccc3-c3nn[nH]n3)ccc2OC(C(C)C)C(C)C)cc1 | – | – | 41 | 48 | 2 | 1.4 | – | 18 | – |
| Cc1ccc(NC(=O)Nc2cc(-c3ccccc3-c3nn[nH]n3)cc3c2O[C@@H](C)CCC[C@H]3c2ccccc2)cc1 | 0.025 | – | 100 | 74 | 66 | – | 3.2 | – | – |

Second part, led by results:

| IC50 [1] [µM] | IC50 [2] [µM] | remaining at 10 min, 0.5 µM [3] [%] | remaining at 10 min, 0.5 µM [4] [%] | remaining at 10 min, 0.5 µM [5] [%] | IC50 [6] [µM] | IC50 [21] [µM] | Compound | IC50 [19] [µM] | further results |
| --- | --- | --- | --- | --- | --- | --- | --- | --- | --- |
| 0.007 | > 7.5 | 37 | 60 | 33 | 2.7 | – | Cc1ccc(NC(=O)Nc2cc(-c3ccccc3-c3nnn[nH]3)ccc2N(CC(C)C)CC(C)C)cc1 | – | IC50 [7]: 9.5 µM; IC50 [8]: 8.7 µM; IC50 [9]: 2.7 µM; IC50 [10]: 18 µM; IC50 [11]: 7.8 µM; IC50 [12]: 9.2 µM; IC50 [13]: 19 µM; half-life [14]: 9.1 min; half-life [15]: 22 min; half-life [16]: 6.6 min; half-life [17]: 4 min; half-life [18]: 11 min |
| 0.025 | – | 62 | 76 | 47 | 1.8 | – | CCCC(CCC)Oc1ccc(-c2ccccc2-c2nn[nH]n2)cc1NC(=O)Nc1ccc(C)cc1 | > 80 | – |
| 0.013 | – | 75 | 72 | 81 | 5.1 | – | CC(C)CN(CC(C)C)c1ccc(-c2ccccc2C(=O)O)cc1NC(=O)Nc1ccccc1F | – | – |
| 0.0034 | > 7.5 | 94 | 86 | 77 | – | 0.27 | C=CC1(C=C)Oc2c(NC(=O)Nc3ccc(C)cc3)cc(-c3ccccc3-c3nn[nH]n3)cc2[C@@H]1c1ccccc1 | > 80 | – |
| 0.012 | – | 94 | 61 | 76 | – | 1.9 | Cc1ccc(NC(=O)Nc2cc(-c3ccccc3-c3nn[nH]n3)cc3c2O[C@@H](C)C/C=C\[C@H]3c2ccccc2)cc1 | – | – |
